From patent US7122530B2, “24-hydroxyvitamin D, analogs and uses thereof” (Genzyme Corporation, priority 1998, dated 2006)

Assays:
[1] = test system: cytotoxic thymus-derived lymphocyte (CTL) activity; experiment: Immunological testing: CTL activity in mice immunized with allogeneic P815 tumor cells; format: in vivo, C57BL/6 mice; conditions: both tests: 5 micrograms daily i.p., or 10 micrograms i.p. twice; assay 10 days after immunization
Description: Female C57BL/6 mice are used between the ages of 9–12 weeks. Mice are given food and water ad libitum and are kept in a 12-hour light and 12-hour dark cycle.
A known balanced salt solution (BSS) is prepared and supplemented to 0.01 molar with HEPES buffer.
The test compound, 24-OH-D2, is dissolved in dimethylsulfoxide at final concentrations of 0.2 or 0.4 mg per ml. When working with vitamin D compounds, conditions of reduced lighting were employed.
Mice are apportioned at 4 per group and are inoculated intraperitoneally with 3×10^6 allogeneic P815 tumor cells and the resulting cytotoxic thymus-derived lymphocyte (CTL) activity is assessed 10 days later. Mice are treated by the intraperitoneal route with 25 microliters of test compound dissolved in dimethylsulfoxide or with dimethylsulfoxide only (vehicle control). […]
Ten days after immunization of mice with P815 cells, single spleen cell suspensions are prepared by passage of spleens through a steel mesh into BSS and are subsequently washed twice with BSS. […] Cytotoxic T lymphocyte activity is determined individually on spleen cells from each animal in each group and the results are expressed as the mean CTL activity (as percent specific Cr release) of each group ± the standard deviation.

[2] = In vivo generation of 1α,24-(OH)2-D2 in vitamin D-deficient rats (plasma metabolites by HPLC); conditions: vitamin D-deficient rats; oral or intraperitoneal supplementation; HPLC
Description: 24-OH-D2 was administered (either oral or intraperitoneal supplementation) to vitamin D-deficient rats. Lipid extracts of the plasma were prepared and the metabolites purified by the method of Horst et al. (Horst, R. L., Koszewski, N. J. and Reinhardt, T. A., Biochem., 29:578–82 (1990) and incorporated herein by reference) described below for synthesizing standard biological 1α,24-(OH)2D2.

[3] = test system: dermatitis (contact and ectopic) patients; experiment: Double blind study of oral 24-OH-D2 formulation in dermatitis (contact and ectopic); format: in vivo, human; conditions: daily oral 10.0 to 20.0 μg, four to six weeks
Description: An oral dosage formulation containing 24-OH-D2 is evaluated in a double blind study for therapeutic efficacy of the formulation in the treatment of dermatitis (contact and ectopic). The formulation evaluated contains 10.0 to 20.0 μg of 24-OH-D2. […] The patients are treated in an outpatient clinic and are divided into an experimental and control population. They are instructed to take the medication once a day, in the morning before breakfast.
In each patient (experimental and control) an area of the skin containing a lesion is selected which is ordinarily covered by clothing, and the patients are instructed not to expose the skin area selected for study to sunlight. The area of the lesion is estimated and recorded, and the lesion(s) is photographed. Relevant details of the photographic procedure are recorded so as to be reproduced when the lesions are next photographed (distance, aperture, angle, background, etc.).
Evaluations of erythema, scaling, and thickness are conducted at weekly intervals by a physician. The final evaluation is usually carried out at the end of four to six weeks of treatment.

[4] = test system: patients with advanced androgen-independent prostate cancer; experiment: Open-label two-phase study of oral 24-(OH)-D2 in prostate cancer; format: in vivo; conditions: for progression of metastatic disease (CAT scans, X-rays and bone scans): second phase, after one and two years
Text: Patients with advanced androgen-independent prostate cancer participate in an open-label study of 24-(OH)-D2. […] On admission to the study, patients begin a course of therapy with oral 24-(OH)-D2 lasting 26 weeks, while discontinuing any previous use of calcium supplements, vitamin D supplements, and vitamin D hormone replacement therapies. During treatment, the patients are monitored at regular intervals for: (1) hypercalcemia, hyperphosphatemia, hypercalciuria, hyperphosphaturia and other toxicity; (2) evidence of changes in the progression of metastatic disease; and (3) compliance with the prescribed test drug dosage.
The study is conducted in two phases. During the first phase, the maximal tolerated dosage (MTD) of daily oral 24-(OH)D2 is determined by administering progressively higher dosages to successive groups of patients. All doses are administered in the morning before breakfast. The first group of patients is treated with 25.0 μg of 24-(OH)D2. Subsequent groups of patients are treated with 50.0, 75.0 and 100.0 μg/day. Dosing is continued uninterrupted for the duration of the study unless serum calcium exceeds 11.6 mg/dL, or other toxicity of grade 3 or 4 is observed, in which case dosing is held in abeyance until resolution of the observed toxic effect(s) and then resumed at a level which has been decreased by 10.0 μg.
During the second phase, patients are treated with 24-(OH)D2 for 24 months at 0.5 and 1.0 times the MTD.

[5] = test system: renal patients with secondary hyperparathyroidism; experiment: Clinical trial of 24-OH-D2 for secondary hyperparathyroidism in end stage renal disease; format: in vivo, human
Description: Thirty renal patients are enrolled in a clinical trial to study secondary hyperparathyroidism. The patients show baseline iPTH levels greater than 1000 pg/mL. An initial dose of 24-OH-D2 (50 μg 3 times/week) is increased (maximum, 100 μg 3 times/ week) or decreased as necessary to attain and maintain iPTH in the range of 150–300 pg/mL. After 11–12 weeks of treatment, the iPTH levels of the patients decrease to below 1000 pg/mL, and in many cases to below 500 pg/mL.

For `C=C1CC[C@H](O)C/C1=C/C=C1\CCC[C@]2(C)[C@@H]([C@H](C)/C=C/C(C)(O)C(C)C)CC[C@@H]12` (some centres unmarked) [24-OH-D2, 24-hydroxyvitamin D2], the “CTL activity versus vehicle control” value [1] was “statistically significant reduction”, the “metabolite isolated from plasma lipid extracts versus standard 1α,24-(OH)2D2” value [2] was “co-migrated on HPLC with the standard 1α,24-(OH)2D2” and the “degree of erythema, scaling, and thickness versus control patients” value [3] was “significantly reduces”. The “MTD level relative to what can be achieved with 1α,25-(OH)2D3” value ([4]; first phase) was 10- to 50 fold, the “circulating levels of 1α,25-(OH)2D3” value ([4]; first phase) was “suppressed, often to undetectable levels” and the “levels of circulating 24-(OH)D2 versus dosage administered” value ([4]; in vivo) was “increase proportionately with the dosage administered”. For the same compound, the “maximum levels of circulating 24-(OH)D2” value ([4]; in vivo) was “above 100 pg/mL”, the “serum and urine calcium” value ([4]; in vivo) was “elevated in a dose responsive manner” and the “progression of metastatic disease (CAT scans, X-rays and bone scans)” value ([4]; higher dosage (1.0 times the MTD)) was “stable disease and partial or complete remission in many patients”. For the same compound, the “progression of metastatic disease (CAT scans, X-rays and bone scans)” value ([4]; lower dosage (0.5 times the MTD)) was “stable disease or partial remission in many patients”, the “bone pain associated with metastatic disease” value ([4]; treated with the MTD for at least six months) was “significantly diminished” and the “iPTH levels of the patients” value ([5]; after 11–12 weeks, baseline greater than 1000 pg/mL, 50 μg 3 times/week, titrated) was “below 1000 pg/mL”. For the same compound, the “iPTH levels, in many cases” value ([5]; after 11–12 weeks, in many cases) was “below 500 pg/mL” and the episodes of hypercalcemia ([5]; during the study) was “few episodes of hypercalcemia”.
